In US11369110B2, “Compositions and methods for enhancing microbial stability” (NOVOZYMES BIOAG A/S, priority 2013, dated 2022):

Legend:
[1] = system: B. elkani SEMIA 587 and B. elkani SEMIA 5019; assay: Liquid inoculant survivability in the presence of insecticide containing benzyl hemi-formal (Example 2); assay type: cell-based, Bradyrhizobium elkani; conditions: Table 4
Description: The general protocol described in Example 1 was modified to process larger samples. A commercial insecticide containing benzyl hemi-formal was tested at concentrations that would emulate the recommended doses both for the inoculants and the insecticide.
(§1) Sterile 250 ml erlenmeyers containing sterile magnetic stirrers were used instead of test tubes. The commercial insecticide was transferred to a series of erlenmeyers and the stated amounts of microbial stabilizing compounds (yeast extract and soy meal peptone from Merck and tryptophan from Ajinomoto) were premixed at 250 rpm for 6 hours.
To each of the corresponding erlenmeyer flasks, 30 ml of the inoculants (as described in example 1) was added, mixed, and samples were obtained immediately and at 2 hr intervals. Samples were processed as described in Example 1.

[2] = system: B. japonicum SEMIA 5079 and B. japonicum SEMIA 5080; assay: Liquid inoculant survivability in the presence of insecticide containing benzyl hemi-formal (Example 5); assay type: cell-based, Bradyrhizobium japonicum; conditions: Table 10
Description: The general protocol described in Example 4 was modified to process larger samples. A commercial insecticide containing benzyl hemi-formal was tested at concentrations that would emulate the recommended doses both for the inoculants and the insecticide.
as §1
To each of the corresponding erlenmeyer flasks, 30 ml of inoculant (as described in example 4) was added, mixed, and samples were obtained immediately and at 2 hr intervals. Samples were processed as described in Example 4.

[3] = system: B. elkani SEMIA 587 and B. elkani SEMIA 5019; assay: Liquid inoculant survivability in the presence of benzyl hemi-formal (Example 1); assay type: cell-based, Bradyrhizobium elkani; conditions: at the concentration tested; Table 2
Description: (§2) The activity of two microbially stabilizing compounds, yeast extract and albumin, were tested for reducing the effects of the preservative benzyl hemi-formal (at a concentration reflecting that provided by the current recommendation for a commercial insecticide that includes that preservative).
(§3) Using conventional aseptic techniques, 10 ml of a commercial liquid inoculant containing B. elkani SEMIA 587 and B. elkani SEMIA 5019 (Nitragin Optimize II, commercially available from Novozymes) was transferred to a series of sterile test tubes, to which 0.7 ml of a 2% solution containing benzyl hemi-formal was added and, in the corresponding tubes, 0.3 g of Yeast extract (commercially available from Merck) or 0.3 g Albumin (commercially available from SIGMA) were incorporated. A control of bacterial survival consisting of the inoculants without a microbial stabilizing compound was tested for comparison.
(§4) The tubes were mixed using a vortex agitator, transferred to a 30° C. orbital shaker. After 20 minutes incubation (Time 0), 0.1 ml samples were taken, and conventionally diluted 1/10 in a series of tubes containing 0.9 ml of sterile saline solution (0.85% NaCl in distilled water). […] Colonies were counted after seven days incubation. The number of colony forming units per ml (CFU ml^−1) was calculated taking into account the plated dilutions and the plated volume. […]

[4] = system: B. japonicum SEMIA 5079 and B. japonicum SEMIA 5080; assay: Liquid inoculant survivability in the presence of benzyl hemi-formal (Example 4); assay type: cell-based, Bradyrhizobium japonicum; conditions: at the concentration tested; Table 8
Description: as §2
as §3, with “japonicum” for “elkani”, “5079” for “587”, “5080” for “5019”, “CellTech HC,” for “Optimize II,”
as §4

| Molecule | Effect on the deleterious effects induced by benzyl hemi-formal containing agrochemical on a microbial population (in words) [1] | Effect on the deleterious effects induced by benzyl hemi-formal containing agrochemical on a microbial population (in words) [2] | Effect on the deleterious effects induced by benzyl hemi-formal (in words) [3] | Effect on the deleterious effects induced by benzyl hemi-formal (in words) [4] |
| --- | --- | --- | --- | --- |
| N[C@@H](Cc1c[nH]c2ccccc12)C(=O)O [tryptophan] | reduce the deleterious effects | reduce the deleterious effects | – | – |
| albumin | – | – | reduce the deleterious effects | reduce the deleterious effects |
